In US20210094922A1, “Dyes for Analysis of Soluble Protein Aggregates or Misfolded Protein Oligomers” (The Penn State Research Foundation, priority 2018, published 2021):

Key:
[1] = Photophysical parameters of fluorophores in glycerol; type: physicochemical
Procedure: FP analogues (20 μM) were prepared in glycerol:H2O mixture with increasing glycerol concentrations. In addition, fluorescence intensity in 1,4-dioxane was measured to evaluate their response to polarity. Fluorescence measurement was carried out using a Tecan infinite M1000Pro fluorescence microplate reader at excitation and emission wavelengths as indicated. All readings were normalized against the fluorescence intensity in 100% glycerol as 1. Error bars: standard error (n=3).
FP analogues (20 μM) were prepared in glycerol. Spectra were collected with emission wavelength of 420 nm for 1, 525 nm for 2, 620 nm for 3, 3a and 3b. All measurements were carried out using a Tecan infinite M1000Pro fluorescence microplate reader.
FP analogues (20 μM) were prepared in glycerol. Spectra were collected with excitation wavelength of 370 nm for 1, 455 nm for 2, 530 nm for 3 and 3b, 485 nm for 3a. All measurements were carried out using a Tecan infinite M1000Pro fluorescence microplate reader.
FP analogues (10 μM) were prepared in glycerol. Spectra were collected with 10 mm quartz cuvette. All measurements were carried out using Agilent 300 UV-Vis spectrophotometer.
However, the quantum yield (QY, Φ=0.001 for 1 and Φ=0.027 for 2 in glycerol, Table 2) was much lower than that of a GFP (Φ=0.79).

[2] = target: bovine serum albumin and sodium dodecyl sulfate (Bos taurus, UniProt P02769); assay: Fluorescence background response to BSA and SDS; conditions: incubated with BSA or SDS
Sequence of bovine serum albumin and sodium dodecyl sulfate (P02769 25-607): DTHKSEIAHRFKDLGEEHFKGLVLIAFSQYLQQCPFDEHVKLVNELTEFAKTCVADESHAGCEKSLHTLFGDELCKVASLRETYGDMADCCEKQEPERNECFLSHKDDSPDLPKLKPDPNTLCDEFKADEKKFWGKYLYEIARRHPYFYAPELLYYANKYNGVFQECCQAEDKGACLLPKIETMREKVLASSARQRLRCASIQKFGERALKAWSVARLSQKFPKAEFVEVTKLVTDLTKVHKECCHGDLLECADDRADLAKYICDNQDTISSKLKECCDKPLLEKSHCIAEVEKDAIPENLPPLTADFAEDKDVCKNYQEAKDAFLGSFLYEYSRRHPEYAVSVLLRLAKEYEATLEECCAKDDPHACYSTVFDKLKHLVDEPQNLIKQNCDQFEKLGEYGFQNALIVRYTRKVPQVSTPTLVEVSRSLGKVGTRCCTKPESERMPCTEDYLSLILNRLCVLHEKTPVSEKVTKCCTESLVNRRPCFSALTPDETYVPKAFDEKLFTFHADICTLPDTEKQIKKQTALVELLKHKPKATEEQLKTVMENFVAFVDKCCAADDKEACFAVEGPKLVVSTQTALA
Procedure: 20 µM of fluorophores were incubated in H2O, glycerol, dioxane, BSA (2 mg/mL), or SDS (0.2%). Intensities were normalized against the value in either 100% glycerol as 1 for CCVJ and 4, or dioxane as 1 for SBD. Parameters for fluorescence measurement: SBD (Ex=450 nm/Em=545 nm), CCVJ (Ex=450 nm/Em=500 nm), 4 (Ex=530 nm/Em=630 nm). Error bars: standard error (n=3).

Htt-97Q-Halo [3] = target: T1, Htt-97Q-Halo (Homo sapiens, UniProt P42858); assay: AggTag imaging of Htt-Halo aggregation in HEK293T cells; type: cell-based; conditions: non-specific binding control
T1 construct: using the Huntingtin exon 1 protein (Htt) with expansion of a polyglutamine tract within its N-terminal domain; expressed in transfected cells; host or cells: HEK293T
T1 sequence (P42858 with tags, fused parts or gaps): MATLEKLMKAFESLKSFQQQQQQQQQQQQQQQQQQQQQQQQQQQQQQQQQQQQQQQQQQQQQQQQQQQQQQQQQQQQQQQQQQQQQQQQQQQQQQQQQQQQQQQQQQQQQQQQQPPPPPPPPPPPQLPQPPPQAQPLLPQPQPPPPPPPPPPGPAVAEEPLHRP
Procedure: (§1) (a) The dual-probe live cell imaging experiment. Halo-tag fusion proteins were labeled in the presence of both the non-fluorogenic coumarin ligand (1 μM) and 4 (1 µM). The newly synthesized Htt-Halo proteins were equally labeled with either the coumarin ligand or 4. The coumarin ligand is fluorescent both before and after aggregation of Htt-Halo. By contrast, signal of 4 exclusively arises from Htt-Halo aggregates. (b) Dual probes labeling confirms expression of proteins. The Htt Q0-Halo and Htt Q97-Halo proteins were transiently transfected and expressed in HEK293T cells for 24 h, in the presence of 1 μM coumarin Halo-Tag ligand and 1 μM of 4. In cells expressing Htt Q97-Halo proteins, punctate structures in the coumarin channel coincided with the turn-on fluorescence of 4. […] (c) The Htt Q97 protein, without a Halo-Tag, was transiently transfected and expressed in HEK293T cells for 24 h, in the presence of 1 μM of 4. No turn-on fluorescence of 4 was found. Red: fluorescence from the SOD1(V31A)-Halo-4 conjugate. Blue: coumarin Halo-Tag ligand in (a) or nucleus stained by Hoechst 33342 in (b). Scale bar: 10 μm. (d) Fluorescent intensity of cell lysates from samples as represented in FIG. 4d. Error bars: standard error (n=3).
(§2) Confocal microscope imaging. The HEK293T cells were seeded at 25% confluency 24 h prior to transfection in poly-D-lysine coated 35 mm glass bottom dishes (MatTek Corporation). Cells were grown in DMEM media supplemented with 10% FBS and Penicillin-Streptomycin antibiotics until they reached 50-60% confluency. Transfection was carried out using X-tremeGene™ 9 DNA transfection reagent (Roche) according to the manufacturer's instructions. Proteins were expressed for 24 h prior to analyses. To label proteins with Halo-Tag fusion, protein expression was carried out in the presence of 1 μM 4 or 1 μM TMR Halo-Tag ligand to form covalent conjugate with the Halo-Tag domain. For a dual-probe labeling scheme, 1 μM 4 and 1 μM coumarin Halo-Tag ligand to simultaneously form covalent conjugate with the Halo-Tag domain.
(§3) To wash off unbound Halo ligands, the cells were washed extensively by replacing media with fresh DMEM and incubating for 30 min at 37° C. For confocal fluorescence imaging with either 4-labeled Halo fusion, TMR-labeled Halo fusion, EGFP fusion, or mCherry fusion proteins, DMEM media was replaced with FluoroBrite™ DMEM media (ThermoFisher) supplemented with 10% FBS, and Hoechst 33342 (0.1 μg/mL). For confocal fluorescence imaging with either dual-probe labeled Halo fusion with 4 and coumarin ligand, DMEM media was replaced with FluoroBrite™ DMEM media (ThermoFisher) supplemented with 10% FBS. The samples were incubated for 30 min prior to imaging. Media was replaced with fresh FluoroBrite™ DMEM media (ThermoFisher) supplemented with 10% FBS prior to imaging. Confocal images were obtained using Olympus FluoView™ FV1000 confocal microscope. The EGFP fluorescence was visualized using blue argon (488 nm) laser. Nuclear staining and coumarin fluorescence was visualized using violet laser (405 nm). Fluorescence of TMR and 4 were visualized using green HeNe laser (543 nm).

Htt-97Q-Halo [4] = target: T2, Htt-97Q-Halo (UniProt P0A3G2+P42858, A155T/A167V/A172T/A224E/C128F/C176G/D78G/E160K/E257K/H272N/K175M/K195N/L47V/L88M/N227D/S58T/T264A/Y273L/Y87F); assay: as above; type: cell-based, human
T2 construct: using the Huntingtin exon 1 protein (Htt) with expansion of a polyglutamine tract within its N-terminal domain; expressed in transfected cells; host or cells: HEK293T
T2 sequence (P42858+P0A3G2 fused with the stated changes): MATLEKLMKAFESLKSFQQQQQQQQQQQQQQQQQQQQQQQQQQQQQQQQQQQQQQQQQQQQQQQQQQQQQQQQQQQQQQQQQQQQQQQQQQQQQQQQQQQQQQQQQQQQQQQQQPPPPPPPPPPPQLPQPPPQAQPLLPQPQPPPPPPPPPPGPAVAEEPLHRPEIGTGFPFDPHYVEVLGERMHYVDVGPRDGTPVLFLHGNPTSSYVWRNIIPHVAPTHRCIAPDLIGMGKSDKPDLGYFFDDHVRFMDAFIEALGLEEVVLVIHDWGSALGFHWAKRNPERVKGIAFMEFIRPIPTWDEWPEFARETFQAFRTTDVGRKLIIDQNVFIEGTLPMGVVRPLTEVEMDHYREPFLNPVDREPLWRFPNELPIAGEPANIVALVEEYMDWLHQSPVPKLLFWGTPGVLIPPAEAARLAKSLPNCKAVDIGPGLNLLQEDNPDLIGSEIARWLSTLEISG
Procedure: as §1, §2, §3

Htt-97Q-Halo [5] = assay: as above; type: cell-based, human; conditions: control
Procedure: as §1, §2, §3

SOD1-A4V-Halo = SOD1-A4V-Halo (Homo sapiens, UniProt P00441, A5V); assay: In vitro heat-induced aggregation of SOD1-A4V-Halo conjugates; type: biochemical
Sequence of SOD1-A4V-Halo (P00441 with tags, fused parts or gaps A5V): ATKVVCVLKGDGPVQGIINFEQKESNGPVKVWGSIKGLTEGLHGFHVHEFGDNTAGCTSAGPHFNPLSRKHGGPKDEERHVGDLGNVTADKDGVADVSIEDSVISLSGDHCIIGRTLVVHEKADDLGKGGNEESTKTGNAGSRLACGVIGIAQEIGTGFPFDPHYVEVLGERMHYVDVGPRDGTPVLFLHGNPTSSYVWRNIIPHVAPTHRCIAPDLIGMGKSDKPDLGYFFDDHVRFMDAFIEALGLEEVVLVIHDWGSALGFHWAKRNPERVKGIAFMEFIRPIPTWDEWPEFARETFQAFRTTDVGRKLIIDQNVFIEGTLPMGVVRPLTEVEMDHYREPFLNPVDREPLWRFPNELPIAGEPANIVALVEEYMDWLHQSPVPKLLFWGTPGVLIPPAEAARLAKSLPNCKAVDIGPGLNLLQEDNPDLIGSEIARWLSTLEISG
Source text: (B-C) Excitation and emission spectra of 4 (with misfolded oligomers of SOD1-A4V-Halo) and 5 (with insoluble aggregates of SOD1-A4V-Halo).
The inventors installed Halo-tag reactive warhead to 2, resulting in 5.

[6] = 4 with misfolded oligomers, 5 with insoluble aggregates of SOD1-A4V-Halo

CN(C)c1ccc(/C=C2N=C(/C=C/c3ccc(N(CCO)CCO)cc3)N(CC(=O)N[C@H]3CC[C@H](C(=O)NCCOCCOCCCCCCCl)CC3)C\2=O)cc1 [Compound 4, (1r,4r)-4-(2-((Z)-2-((E)-4-(bis(2-hydroxyethyl)amino)styryl)-4-(4-(dimethylamino)benzylidene)-5-oxo-4,5-dihydro-1H-imidazol-1-yl)acetamido)-N-(2-(2-((6-chlorohexyl)oxy)ethoxy)ethyl)cyclohexanecarboxamide]
fluorescent properties of 4 compared with 3 [1]: identical to 3
B (brightness) ([1]; calculated using B = Φϵ): 8,734 M^−1cm^−1
Φ (quantum yield) ([1]; in glycerol): 0.230
λem ([1]; in glycerol): 628 nm
λex ([1]; in glycerol): 530 nm
λabs ([1]; maximum absorbance measured in glycerol): 534 nm
ϵ (extinction coefficient) ([1]; measured in glycerol): 36,241 M^−1cm^−1
fluorescent background signal versus SBD and CCVJ [2]: substantially lower fluorescent background signal
fluorescence in cells expressing Htt-97Q without Halo-Tag (Htt-97Q-Halo [3]): no fluorescent signal
turn-on fluorescence in cells expressing Htt-97Q-Halo (Htt-97Q-Halo [4]): observed as puncta without any background diffuse fluorescence
origin of Htt-97Q-Halo fluorescence after fractionation of lysate (Htt-97Q-Halo [4]; cell lysate): primarily originated from the insoluble fraction
fluorescence in cells co-expressing Htt-Q97-GFP and Halo-Tag or just expressing Htt-Q97 (Htt-97Q-Halo [5]): showed no fluorescence of 4
Em (SOD1-A4V-Halo; [6]): 600 nm
Ex (SOD1-A4V-Halo; [6]): 530 nm
kinetics of fluorescence increase versus turbidity (SOD1-A4V-Halo; SOD1-A4V-Halo conjugate): faster than that of turbidity
